Key:
[1] = molecular target: T1, Rap guanine nucleotide exchange factor 4 (Homo sapiens, UniProt Q8WZA2); assay: Displacement of 8-NBD-cAMP from EPAC2 (unknown origin) by fluorescence plate reader analysis
[2] = molecular target: T2, Rap guanine nucleotide exchange factor 3 (Homo sapiens, UniProt O95398); assay: Inhibition of EPAC1 (unknown origin) assessed as cAMP-mediated GEF activity
T2 sequence (O95398 whole entry): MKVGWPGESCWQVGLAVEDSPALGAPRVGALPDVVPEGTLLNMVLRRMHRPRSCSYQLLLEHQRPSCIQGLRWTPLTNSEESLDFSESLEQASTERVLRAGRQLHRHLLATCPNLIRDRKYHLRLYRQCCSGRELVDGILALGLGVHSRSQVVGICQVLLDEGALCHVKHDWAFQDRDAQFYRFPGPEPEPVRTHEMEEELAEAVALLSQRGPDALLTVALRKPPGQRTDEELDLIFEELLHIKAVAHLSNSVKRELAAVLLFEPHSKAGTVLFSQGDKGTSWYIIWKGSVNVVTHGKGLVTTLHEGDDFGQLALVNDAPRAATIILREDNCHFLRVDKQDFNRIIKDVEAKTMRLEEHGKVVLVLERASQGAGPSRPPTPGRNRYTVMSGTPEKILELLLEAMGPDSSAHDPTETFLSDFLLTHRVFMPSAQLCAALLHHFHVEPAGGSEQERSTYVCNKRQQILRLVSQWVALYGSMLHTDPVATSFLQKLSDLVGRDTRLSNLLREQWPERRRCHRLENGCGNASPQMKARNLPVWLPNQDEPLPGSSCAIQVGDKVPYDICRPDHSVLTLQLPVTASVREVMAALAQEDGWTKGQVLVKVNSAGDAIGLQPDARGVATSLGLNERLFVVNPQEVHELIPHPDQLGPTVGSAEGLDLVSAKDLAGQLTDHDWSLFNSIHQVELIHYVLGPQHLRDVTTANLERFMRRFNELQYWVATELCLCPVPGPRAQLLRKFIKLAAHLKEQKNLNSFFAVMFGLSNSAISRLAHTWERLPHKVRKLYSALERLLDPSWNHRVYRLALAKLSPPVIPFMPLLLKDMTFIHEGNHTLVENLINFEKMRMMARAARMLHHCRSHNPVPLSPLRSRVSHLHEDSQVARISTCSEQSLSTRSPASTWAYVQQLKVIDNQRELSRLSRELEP

[3] = molecular target: T1, Rap guanine nucleotide exchange factor 4; assay: Inhibition of EPAC2 (unknown origin)

T1 sequence (Q8WZA2 whole entry): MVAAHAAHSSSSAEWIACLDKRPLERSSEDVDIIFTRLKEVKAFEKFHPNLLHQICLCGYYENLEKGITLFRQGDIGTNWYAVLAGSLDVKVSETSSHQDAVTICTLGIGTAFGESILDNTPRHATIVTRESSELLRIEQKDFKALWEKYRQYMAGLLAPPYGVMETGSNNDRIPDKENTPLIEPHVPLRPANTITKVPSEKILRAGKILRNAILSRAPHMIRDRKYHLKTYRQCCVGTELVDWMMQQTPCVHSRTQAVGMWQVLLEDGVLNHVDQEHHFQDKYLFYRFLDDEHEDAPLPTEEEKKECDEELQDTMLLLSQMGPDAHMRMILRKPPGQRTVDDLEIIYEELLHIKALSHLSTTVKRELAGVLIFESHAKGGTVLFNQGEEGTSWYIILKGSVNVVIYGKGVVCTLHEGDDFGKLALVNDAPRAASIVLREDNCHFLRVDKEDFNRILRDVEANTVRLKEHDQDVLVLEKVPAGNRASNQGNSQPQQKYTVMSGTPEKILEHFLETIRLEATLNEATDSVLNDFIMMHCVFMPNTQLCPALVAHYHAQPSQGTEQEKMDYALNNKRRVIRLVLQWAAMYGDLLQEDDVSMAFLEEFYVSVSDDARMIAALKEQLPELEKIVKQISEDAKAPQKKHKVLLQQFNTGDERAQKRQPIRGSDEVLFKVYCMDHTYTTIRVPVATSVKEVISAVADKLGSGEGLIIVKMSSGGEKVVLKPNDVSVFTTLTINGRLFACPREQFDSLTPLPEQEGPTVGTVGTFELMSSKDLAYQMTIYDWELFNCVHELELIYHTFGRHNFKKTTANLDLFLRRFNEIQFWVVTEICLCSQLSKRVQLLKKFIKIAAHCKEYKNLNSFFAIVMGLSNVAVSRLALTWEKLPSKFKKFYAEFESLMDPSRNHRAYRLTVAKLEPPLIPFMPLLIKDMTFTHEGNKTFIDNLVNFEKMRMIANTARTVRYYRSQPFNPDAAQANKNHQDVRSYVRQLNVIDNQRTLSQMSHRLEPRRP

Structure (SMILES)	IC50 [1] [µM]	IC50 [2] [µM]	IC50 [3] [µM]
CC(C)(C)c1cc(C(=O)/C(C#N)=N/Nc2cccc(Cl)c2)no1	7	3.2	
COCCC[n+]1c(C)csc1Nc1c(C)cc(C)cc1C			0.6
N#Cc1c(NC(=O)C(F)(F)F)sc2c3c(=O)c4ccccc4c(=O)c=3oc3ccccc3c12	7.9		

Next, values leading:

IC50 [1] [µM]	IC50 [2] [µM]	IC50 [3] [µM]	Structure (SMILES)
1.7			O=S(=O)(O)c1ccc2c(/N=N/c3c(O)ccc4ccccc34)cccc2c1
3.8			O=C1C=CC2=C(Oc3c(ccc(O)c3O)/C2=C/C=C(O)O)C1=O

Source: ChEMBL document CHEMBL3259785, “Recent advances in the discovery of small molecules targeting exchange proteins directly activated by cAMP (EPAC)” (J Med Chem, 2014)
